{
  "source": "patent US20040009952A1",
  "about": "“TGF-beta gene overexpression preventing substances for the treatment of disorders connected with pathological overexpression of TGF-beta” (priority 1998, published 2004)",
  "system": "TGF-β1 mRNA",
  "experiment": "Glucose- or PMA-induced TGF-β1 mRNA overexpression in porcine mesangial cells (RT-PCR, capillary electrophoresis)",
  "assay_type": "cell-based",
  "details": "PMA; 10 μg/ml GAG; PMA alone 312; mean of 2 determinations",
  "text": "To assess the inhibitory activity of the GAG action on TGF-β1 overexpression an in vitro assay was established. In this assay structurally distinct GAGs were investigated for their activity to inhibit stimulated TGF-β1 mRNA overexpression in cultured target cell. For the development of glomerulosclerosis (e.g. diabetes) mesangial cells are one major pathological target. Mesangial cells were isolated, characterized and grown as decribed by Kolm et al. Am. J. Physiol. 270: F812-F821, 1996. Cells were stimulated with PMA in the presence and absence of a variety of 10 μg/ml of GAGs and related compounds. Cellular mRNA TGF-β1I levels were determined as decribed in Example II.\nThe separation and the precise quantification of the PCR products was performed on a Biofocus 3000 capillary electrophoresis system equipped with a laser-induced fluorescence detector (Bio-Rad, Munich, Germany) using an argon-ion laser. Excitation power was approximately 3.5 mW at =488 nm, and fluorescence emission was detected after passing through a 520 nm band pass filter. […] For on-column DNA fluorescence labeling, 1 μl Syber Green I (Molecular probes, Eugene, Or, USA) was addes per ml. […] The migration time for the PCR products was 5.2 min for TGF-β1 (161 bp) and 6.5 min for GAPDH (983 bp) All peak areas were calculated automatically using Biofocus Integration Software. […]",
  "data": [
    {"substance": "chitosan-6-sulfate", "values": [
      {"measurement": "TGF-β1 mRNA", "value": "116 % of control"}
    ]}
  ]
}
